Calls of active or inactive are those of the source. How the calls were made is not given here.
Test system: CCRIS mutagenicity, Ames/micronucleus/aberration tests
Test: CCRIS mutagenicity studies

**Q.** What does the source list for `C1COCCO1`?
**A.** mutagenic call (End Point: IN VITRO CHROMOSOMAL ABERRATIONS, Test System: CHINESE HAMSTER OVARY CELLS, Metabolic Activation: NONE): inactive; negative; mutagenic call (End Point: IN VITRO CHROMOSOMAL ABERRATIONS, Test System: CHINESE HAMSTER OVARY CELLS, Metabolic Activation: RAT, LIVER, S-9, AROCLOR 1254): inactive; negative; mutagenic call (End Point: IN VIVO MICRONUCLEUS, Test System: BONE MARROW ERYTHROCYTES, Species: MOUSE, Strain/Sex: CD-1/MALE, Route: ORAL (GAVAGE)): active; positive; mutagenic call (End Point: IN VIVO MICRONUCLEUS, Test System: HEPATOCYTES (BRDU-LABELING), Species: MOUSE, Strain/Sex: CD-1/MALE, Route: ORAL (GAVAGE)): active; positive; mutagenic call (Test System: AMES SALMONELLA TYPHIMURIUM, Strain/Indicator: TA98, Metabolic Activation: HAMSTER LIVER S-9, PHENOBARBITAL AND BETA-NAPHTHOFLAVONE (10%), Method: PREINCUBATION): inactive; negative; mutagenic call (Test System: AMES SALMONELLA TYPHIMURIUM, Strain/Indicator: TA98, Metabolic Activation: HAMSTER LIVER S-9, PHENOBARBITAL AND BETA-NAPHTHOFLAVONE (30%), Method: PREINCUBATION): inactive; negative; mutagenic call (Test System: AMES SALMONELLA TYPHIMURIUM, Strain/Indicator: TA98, Metabolic Activation: NONE, Method: GAS EXPOSURE): inactive; negative; mutagenic call (Test System: AMES SALMONELLA TYPHIMURIUM, Strain/Indicator: TA98, Metabolic Activation: NONE, Method: PREINCUBATION): inactive; negative; mutagenic call (Test System: AMES SALMONELLA TYPHIMURIUM, Strain/Indicator: TA98, Metabolic Activation: NONE, Method: STANDARD PLATE): inactive; negative; mutagenic call (Test System: AMES SALMONELLA TYPHIMURIUM, Strain/Indicator: TA98, Metabolic Activation: RAT LIVER S-9, PHENOBARBITAL AND 5,6-BENZOFLAVONE, Method: PREINCUBATION): inactive; negative; mutagenic call (Test System: AMES SALMONELLA TYPHIMURIUM, Strain/Indicator: TA98, Metabolic Activation: RAT LIVER S-9, PHENOBARBITAL AND 5,6-BENZOFLAVONE, Method: STANDARD PLATE): inactive; negative; mutagenic call (Test System: AMES SALMONELLA TYPHIMURIUM, Strain/Indicator: TA98, Metabolic Activation: RAT LIVER S-9, PHENOBARBITAL AND BETA-NAPHTHOFLAVONE (10%), Method: PREINCUBATION): inactive; negative; mutagenic call (Test System: AMES SALMONELLA TYPHIMURIUM, Strain/Indicator: TA98, Metabolic Activation: RAT LIVER S-9, PHENOBARBITAL AND BETA-NAPHTHOFLAVONE (30%), Method: PREINCUBATION): inactive; negative; mutagenic call (Test System: AMES SALMONELLA TYPHIMURIUM, Strain/Indicator: TA98, Metabolic Activation: RAT LIVER S-9, PHENOBARBITAL AND BETA-NAPHTHOFLAVONE, Method: GAS EXPOSURE): inactive; negative; mutagenic call (Test System: AMES SALMONELLA TYPHIMURIUM, Strain/Indicator: TA100, Metabolic Activation: HAMSTER LIVER S-9, PHENOBARBITAL AND BETA-NAPHTHOFLAVONE (10%), Method: PREINCUBATION): inactive; negative; mutagenic call (Test System: AMES SALMONELLA TYPHIMURIUM, Strain/Indicator: TA100, Metabolic Activation: HAMSTER LIVER S-9, PHENOBARBITAL AND BETA-NAPHTHOFLAVONE (30%), Method: PREINCUBATION): inactive; negative; mutagenic call (Test System: AMES SALMONELLA TYPHIMURIUM, Strain/Indicator: TA100, Metabolic Activation: NONE, Method: GAS EXPOSURE): inactive; negative; mutagenic call (Test System: AMES SALMONELLA TYPHIMURIUM, Strain/Indicator: TA100, Metabolic Activation: NONE, Method: PREINCUBATION): inactive; negative; mutagenic call (Test System: AMES SALMONELLA TYPHIMURIUM, Strain/Indicator: TA100, Metabolic Activation: NONE, Method: STANDARD PLATE): inactive; negative; mutagenic call (Test System: AMES SALMONELLA TYPHIMURIUM, Strain/Indicator: TA100, Metabolic Activation: RAT LIVER S-9, PHENOBARBITAL AND 5,6-BENZOFLAVONE, Method: PREINCUBATION): inactive; negative; mutagenic call (Test System: AMES SALMONELLA TYPHIMURIUM, Strain/Indicator: TA100, Metabolic Activation: RAT LIVER S-9, PHENOBARBITAL AND 5,6-BENZOFLAVONE, Method: STANDARD PLATE): inactive; negative; mutagenic call (Test System: AMES SALMONELLA TYPHIMURIUM, Strain/Indicator: TA100, Metabolic Activation: RAT LIVER S-9, PHENOBARBITAL AND BETA-NAPHTHOFLAVONE (10%), Method: PREINCUBATION): inactive; negative; mutagenic call (Test System: AMES SALMONELLA TYPHIMURIUM, Strain/Indicator: TA100, Metabolic Activation: RAT LIVER S-9, PHENOBARBITAL AND BETA-NAPHTHOFLAVONE (30%), Method: PREINCUBATION): inactive; negative; mutagenic call (Test System: AMES SALMONELLA TYPHIMURIUM, Strain/Indicator: TA100, Metabolic Activation: RAT LIVER S-9, PHENOBARBITAL AND BETA-NAPHTHOFLAVONE, Method: GAS EXPOSURE): inactive; negative; mutagenic call (Test System: AMES SALMONELLA TYPHIMURIUM, Strain/Indicator: TA1535, Metabolic Activation: HAMSTER LIVER S-9, PHENOBARBITAL AND BETA-NAPHTHOFLAVONE (10%), Method: PREINCUBATION): inactive; negative; mutagenic call (Test System: AMES SALMONELLA TYPHIMURIUM, Strain/Indicator: TA1535, Metabolic Activation: HAMSTER LIVER S-9, PHENOBARBITAL AND BETA-NAPHTHOFLAVONE (30%), Method: PREINCUBATION): inactive; negative; mutagenic call (Test System: AMES SALMONELLA TYPHIMURIUM, Strain/Indicator: TA1535, Metabolic Activation: NONE, Method: GAS EXPOSURE): inactive; negative; mutagenic call (Test System: AMES SALMONELLA TYPHIMURIUM, Strain/Indicator: TA1535, Metabolic Activation: NONE, Method: PREINCUBATION): inactive; negative; mutagenic call (Test System: AMES SALMONELLA TYPHIMURIUM, Strain/Indicator: TA1535, Metabolic Activation: NONE, Method: STANDARD PLATE): inactive; negative; mutagenic call (Test System: AMES SALMONELLA TYPHIMURIUM, Strain/Indicator: TA1535, Metabolic Activation: RAT LIVER S-9, PHENOBARBITAL AND 5,6-BENZOFLAVONE, Method: PREINCUBATION): inactive; negative; mutagenic call (Test System: AMES SALMONELLA TYPHIMURIUM, Strain/Indicator: TA1535, Metabolic Activation: RAT LIVER S-9, PHENOBARBITAL AND 5,6-BENZOFLAVONE, Method: STANDARD PLATE): inactive; negative; mutagenic call (Test System: AMES SALMONELLA TYPHIMURIUM, Strain/Indicator: TA1535, Metabolic Activation: RAT LIVER S-9, PHENOBARBITAL AND BETA-NAPHTHOFLAVONE (10%), Method: PREINCUBATION): inactive; negative
